These results are taken from patent publication US9089526B2, “Pharmaceutical product and analysis model for hormone replacement therapy for women and prevention of some cancers and uterine myomas” (Universidad de Chile, priority 2009, dated 2015).

In experiment [1] the test system is rat uterus. Nature of the experiment: Estrogenic (agonist) responses in the uterus of prepubertal female rats, substance alone. To be noted: s.c. Type of experiment: in vivo. The protocol: (§1) Prepubertal female rats were treated s.c. with the vehicle (C) (0.3 mL 1:9 ethanol saline), or a phytoestrogenic preparation, followed after one hour by estradiol-17β (E) Merck (0.33 mg/kg b.wt.), or its vehicle. Among the phytoestrogenic compounds used, genistein (G) Sigma (0.5 mg/kg b.wt.), two different concentrations of soybean ethanol extracts (S): 0.06 (Sd) and 0.364 (Sc) mg genistin/kg b.wt., and extracts, decoctions or extract sub-fractions of various plant species. Genistein quantification was based in the indirect valoration of genistein following 2M HCl hydrolysis and genistein quantification by HPLC (45, 46). […] Uteri were excised under ether anesthesia and histologically processed for eosinophil quantification and morphometric analysis of different parameters of estrogen action (22, 34). The following parameters were quantified in the uterus: total uterine eosinophilia (6), percentage of eosinophils according to the distribution in different uterine histological layers and to their degree of degranulation (10, 14); deep endometrial and superficial endometrial edema (47); luminal epithelial, glandular epithelial (34) and myometrial (47) cell hypertrophy, luminal epithelial RNA content (34), and number of mitotic figures for each uterine cell-type.
(§2) Statistics: According to previous studies (14) using the Tukey test of additivity (50), data on some parameters of estrogen stimulation needs to be submitted to logarithmic transformation or to square or cubic root transformation to normalize distribution. Accordingly, the transformations were performed on some of the parameters of estrogen stimulation investigated (14). Transformed and non-transformed data were subjected to further statistical analysis.
(§3) Since multiple comparisons were performed between the different experimental conditions, transformed and non-transformed data (all parameters except eosinophil degranulation and eosinophil distribution between uterine tissue layers) were subjected to the least significant difference a posteriori (LSD) test. The common variance needed for this test was estimated from a one-way unbalanced analysis of variance (ANOVA).
(§4) In uterine eosinophil degranulation and distribution studies, the χ^2 statistic was used to evaluate differences between the proportions.

The subject of experiment [2] is rat uterus. Nature of the experiment: Modification of estradiol-induced uterine responses in prepubertal female rats, substance given 1 h before estradiol-17β. Type of experiment: in vivo. To be noted: for Estrogen-induced endometrial edema: pretreatment 1 h before estradiol 0.33 mg/kg s.c. The protocol: as §1, §2, §3, §4
Experiment [3] concerns human MCF-7 mammary cancer cells. The experiment in a line: In vitro growth (sulforhodamine B) assay, MCF-7 cells. It counts as cell-based. To be noted: 72 h. The protocol:
(§5) Cell lines. The experimental cell cultures were obtained from American Type Culture Collection (Rockville, Md., USA). MCF-7 and MDA-MB231 cells (estrogen receptor positive and negative respectively breast cancer cells) were grown in Dulbecco's modified Eagle's medium (DMEM) containing 10% FCS, 100 U/ml penicillin, 100 μg/ml streptomycin and 1 mM glutamine. Cells were seeded into 96 well microtiter plates in 100 μl at plating density of 3×10^3 cells/well. After 24 h incubation at 37° C. under a humidified 5% carbon dioxide to allow cell attachment, the cells were washed with phenol red-free and the medium was changed to phenol red-free DMEM supplemented with 4% dextran-charcoal-stripped foetal calf serum (DCFCS). Then the cells were treated with different concentrations of drugs and incubated for 72 h under the same conditions. Stock solution of compounds was prepared in ethanol and the final concentration of this solvent was kept constant at 1%. Control cultures received 1% ethanol alone.
(§6) In vitro growth inhibition assay. The sulforhodamine B assay was used according to the method of Skehan et al. 1990 (48) with some modifications (49). […] Protein-bound stain was solubilized with 100 μl of 10 mM unbuffered Tris base, and the cell density was determined using a […] (wavelength 540 nm). […]

In experiment [4] the test system is human MDAMB-231 mammary cancer cells. Nature of the experiment: In vitro growth (sulforhodamine B) assay, MDAMB-231 cells. Type of experiment: cell-based. To be noted: 72 h. The protocol: as §5, §6
The mark [5] stands for this setting: pretreatment 1 h before estradiol, compared to estradiol alone.
[6] abbreviates: pretreatment 1 h before estradiol, mitoses.
Where [7] appears, read: substance alone, absence of estradiol.

`O=c1c(-c2ccc(O)cc2)coc2cc(O)cc(O)c12` [G, genistein]: the “Edema in deep endometrial stroma” value in the experiment with rat uterus [1] (6 h (FIG. 4)) is listed as “not by G or S”. Further, the “Proportion of uterine eosinophils located in the mesometrium and in the endometrium with myometrium” value in the experiment with rat uterus [1] (6 h (FIG. 6)) is “all the eosinophils were in the mesometrium”. Besides, the “Endometrial luminal epithelial cell hypertrophy” value with rat uterus [1] (24 h (FIG. 2)) is “response similar to E”. Besides, the “Endometrial luminal epithelial cell RNA content” value in the experiment on rat uterus [1] (24 h (FIG. 3)) is recorded as “response similar to E”. In the experiment with rat uterus [1] (24 h (FIG. 11)), the “Cell proliferation (number of mitotic figures) in myometrium” value was “not by G, Sd or Sc”. The Myometrial hypertrophy entry in the experiment on rat uterus [1] (uteri excised 24 h after treatment (FIG. 1)) was “response similar to E”. In the experiment on rat uterus [2] (6 h of treatment), the Estrogen-induced endometrial edema entry is “antagonizes”. Further, the Estrogen-induced endometrial edema result in the experiment on rat uterus [2] (24 h of treatment) was “not at 24 h”. In addition, the Estrogen-induced uterine eosinophilia entry in the experiment on rat uterus [2] (pretreatment 1 h before estradiol, 6 and 24 h considered together) is listed as “mainly at 6 h of treatment”. Further, the “Estrogen-induced eosinophilia in the endometrial layer only” value in the experiment on rat uterus [2] (pretreatment 1 h before estradiol, 6 or 24 h) is recorded as “decrease in eosinophils under estrogen treatment is stronger”. Further, in the experiment on rat uterus [2] (setting [5]), the “Degranulation of uterine eosinophils in estrogen-treated rats” value was “decreases the degranulation” and the “Proportion of uterine eosinophils by location (endometrium/myometrium vs mesometrium) in estrogen-treated rats” value is reported as “decrease in the proportion of eosinophils located in endometrium with myometrium”. For the same compound, in the experiment on rat uterus [2] (setting [6]), the “Estrogen-induced cell proliferation in endometrial stroma” value was “almost completely block”, the “Estrogen-induced cell proliferation in myometrium” value is listed as “almost completely block” and the “Estrogen-induced cell proliferation in uterine luminal epithelium” value was “almost completely block”. Moreover, the “Cell proliferation of cultured MCF-7 cells” value in experiment [3] (setting [7]) was “increased”. Also, in experiment [3] (substance plus estradiol), the “Cell proliferation of cultured MCF-7 cells” value is “cell proliferation induced by genistein plus estradiol is higher than that of estradiol alone”. The “Cell proliferation of cultured MDAMB-231 cells” value in experiment [4] (setting [7]) was “slightly inhibited”. Further, the “Cell proliferation of cultured MDAMB-231 cells” value in experiment [4] (substance plus estradiol) is given as “in association with estradiol the inhibitory effect is stronger than that of genistein alone”.
